Data as given in patent US10881679B2, “Application of a phillyrin/phillygeninin composition in preparing a medicine or health care product for alleviating or/and treating viral diseases, and medicine or health care product for treating viral diseases” (priority 2014, dated 2021).
Marks after values point to notes of the source that are not given here.

Legend:
[1] = system: respiratory syncytial virus (RSV); test: Impact on virus-induced cytopathic effect in Vero cells (MTT): RSV; type: cell-based; settings: RSV 100TCID50, Vero, 72 h; drug g/L as Table 1-2
[2] = system: parainfluenza virus; test: Impact on virus-induced cytopathic effect in Vero cells (MTT): parainfluenza virus; type: cell-based; settings: parainfluenza virus 100TCID50, Vero, 72 h; drug g/L as Table 1-2
[3] = system: influenza virus; type: in vivo, Kunming mice; settings: 13.0 mg/kg/d i.g. 5 days
[4] = system: adenovirus (ADV); test: Impact on virus-induced cytopathic effect in Vero cells (MTT): ADV; type: cell-based; settings: ADV 100TCID50, Vero, 72 h; drug g/L as Table 1-2
[5] = system: enterovirus EV71; test: Impact on virus-induced cytopathic effect in Vero cells (MTT): EV71; type: cell-based; settings: EV71 100TCID50, Vero, 72 h; drug g/L as Table 1-2
[6] = system: Coxsackie virus B3 (CVB3); test: Impact on virus-induced cytopathic effect in Vero cells (MTT): CVB3; type: cell-based; settings: CVB3 100TCID50, Vero, 72 h; drug g/L as Table 1-2
[7] = system: rat paw swelling induced by carrageenin; test: Rat paw swelling induced by carrageenin; type: in vivo, Wistar rats; settings: 10.0 mg/kg
Method: Each group has 10 rats. Rats in each group were all administered by […] through the sublingual vein. Normal volume of the right hind paw of each rat in each group was measured in capillary magnification measurement method. In order to avoid errors, the measurement should be carried out in a fixed position and operated by the same person before and after administration. A mean of the two measurement values was taken as the normal volume of the right hind paw of a rat before administration. […] The difference between the groups was compared by inter-group t test processing through the difference percentage (swelling ratio) of the paw volume before and after the induced rat inflammation. [formula] Results

[8] = system: parainfluenza virus; type: in vivo, Kunming mice; settings: 13.0 mg/kg/d i.g. 5 days
[9] = system: Vero cells; test: Cytotoxicity test (MTT) on Vero cells; type: cell-based, African green monkey; settings: 72 h
Method: Cytotoxicity test: the drugs were diluted according to the concentrations shown in table 1-1 for determination of cytotoxicity. […] In addition, 6 wells were set up as normal control group (without drugs) while another 6 pores as blank control group (medium only). Cells were grown in a 37° C. incubator under 5% CO2. […] After 72 h, 20 μL MTT solution (5 mg·mL^−1) was added into each well to continue incubation for 4 h. The culture medium in each well was sucked and discarded, 100 μL DMSO was added to each well. Then the culture was shaken for 5 min, measured OD value at 492 nm to calculate the cell survival ratio. The cell survival ratio was analyzed using a Probit regression model in SPSS 18.0 statistical software, and the maximal nontoxic concentration (TC0) and median toxic concentration (TC50) of drugs against Vero cells were calculated.

[10] = system: parainfluenza virus; type: in vivo, Kunming mice; settings: 13.0 mg/kg/d i.g. 5 days; remark: listed apart in the source
[11] = system: Herpes zoster simplex viruses type I (HSV-I); test: Impact on virus-induced cytopathic effect in Vero cells (MTT): HSV-I; type: cell-based; settings: HSV-I 100TCID50, Vero, 72 h; drug g/L as Table 1-2
[12] = system: rabbit fever induced by typhoid and paratyphoid vaccine; test: Rabbit fever induced by typhoid and paratyphoid vaccine; type: in vivo, Japanese big-ear white rabbits; settings: 5.2 mg/kg i.g.
Method: Male Japanese big-ear white rabbits with a weight 1.5˜2.0 kg were used. Before the test, WSC-411P portable digital thermometer was used to measure the normal rectal temperature twice (with certain interval for each time), and the average value was taken as the normal body temperature of rabbits. […] Each group has 6 rabbits, and the test was repeated 3 times for each group. Rabbits were fixed into a fixator. The blank control group was intravenously injected with normal saline of 1 ml/kg via the ear margin; The model control group and each drug group were intravenously injected with typhoid and paratyphoid vaccines of 0.8 ml/kg via the ear margin. After the body temperatures of the rabbits increased by 1° C. or more (requiring about 1˜1.5 h, and this test was limited to 1 h), the blank control group and the model group were administered intragastrically with 0.5% carboxymethycellulose of 1 ml/kg, and the drug groups were administered intragastrically with phillyrin/phillygeninin compositions and paracetamol respectively. The rectal temperature was measured after administration for 30, 60, 90, 120, 180 and 240 min to observe the changes in the body temperature, and difference between the groups was compared by inter-group t test processing through antipyretic percentage.

[13] = 15 min after inflammation induction
[14] = 30 min after inflammation induction
[15] = 60 min after inflammation induction
[16] = 120 min after inflammation induction
[17] = 180 min after inflammation induction
[18] = 240 min after inflammation induction
[19] = 300 min after inflammation induction
[20] = 360 min after inflammation induction

Question: For COc1cc([C@H]2OC[C@H]3[C@@H]2CO[C@H]3c2ccc(OC)c(OC)c2)ccc1O [Phillygeninin, phillygeninin], which “antiviral effective rate (ER %)” value [1] is on record?
Answer: The value was 80.88** %.

Question: What about the “antiviral effective rate (ER %)” value [2] of the same molecule?
Answer: Its value is 80.72** %.

Question: What about the “Hemagglutination titer (InX)” value [3] of the same molecule?
Answer: The value was 22.61 ± 1.059.

Question: What about the “Inhibition rate (%) of hemagglutination titer” value [3] of the same molecule?
Answer: The value was 30.22%.

Question: What about the “antiviral effective rate (ER %)” value [4] of the same molecule?
Answer: The value was 50.61%.

Question: And the “antiviral effective rate (ER %)” value [5]?
Answer: The value was 75.86** %.

Question: And the “antiviral effective rate (ER %)” value [6]?
Answer: The value was 50.89%.

Question: What about the “Swelling percentage (%)” value [7, 13] of the same molecule?
Answer: Its value is 14.9 ± 6.13%.

Question: What about the “Swelling percentage (%)” value [7, 14] of the same molecule?
Answer: The value was 21.9 ± 9.72%.

Question: And the “Swelling percentage (%)” value [7, 15]?
Answer: The value was 27.1 ± 13.5%.

Question: And the “Swelling percentage (%)” value [7, 16]?
Answer: The value was 30.7 ± 10.2 %.

Question: What about the “Swelling percentage (%)” value [7, 17] of the same molecule?
Answer: The value was 33.8 ± 12.1 %.

Question: And the “Swelling percentage (%)” value [7, 18]?
Answer: Its value is 31.0 ± 11.3 %.

Question: And the “Swelling percentage (%)” value [7, 19]?
Answer: The value was 35.8 ± 13.5 %.

Question: What about the “Swelling percentage (%)” value [7, 20] of the same molecule?
Answer: Its value is 36.4 ± 10.2%.

Question: What about the Lung index [8] of the same molecule?
Answer: Its Lung index is 1.357 ± 0.050.

Question: What about the “Lung index inhibition rate” value [8] of the same molecule?
Answer: The value was 14.69.

Question: And the “half toxic concentration (TC50)” value [9]?
Answer: The value was 297 µg/mL.

Question: What about the “maximal non-toxic concentration (TC0)” value [9] of the same molecule?
Answer: Its value is 0.011 g/L.

Question: And the “Hemagglutination titer (InX)” value [10]?
Answer: The value was 23.79.

Question: What about the “Inhibition rate (%) of hemagglutination titer” value [10] of the same molecule?
Answer: Its value is 28.15%.

Question: What about the “antiviral effective rate (ER %)” value [11] of the same molecule?
Answer: The value was 84.30** %.

Question: What about the Body temperature ([12]; 30 min after administration) of the same molecule?
Answer: The Body temperature was 41.06 ± 0.26 °C.

Question: What about the “antipyretic percentage (%)” value ([12]; 30 min after administration) of the same molecule?
Answer: The value was −0.10 ± 0.11%.

Question: And the Body temperature ([12]; 60 min after administration)?
Answer: The Body temperature was 40.86 ± 0.21 °C.

Question: What about the “antipyretic percentage (%)” value ([12]; 60 min after administration) of the same molecule?
Answer: Its value is −0.49 ± 0.10%.

Question: And the Body temperature ([12]; 90 min after administration)?
Answer: The Body temperature was 40.74 ± 0.22 °C.

Question: And the “antipyretic percentage (%)” value ([12]; 90 min after administration)?
Answer: Its value is −0.77 ± 0.22%.

Question: What about the Body temperature ([12]; 120 min after administration) of the same molecule?
Answer: The Body temperature was 40.65 ± 0.27 °C.

Question: What about the “antipyretic percentage (%)” value ([12]; 120 min after administration) of the same molecule?
Answer: Its value is −1.00 ± 0.18 %.

Question: What about the Body temperature ([12]; 180 min after administration) of the same molecule?
Answer: The Body temperature was 40.49 ± 0.23 °C.

Question: What about the “antipyretic percentage (%)” value ([12]; 180 min after administration) of the same molecule?
Answer: The value was −1.39 ± 0.17 %.

Question: And the Body temperature ([12]; 240 min after administration)?
Answer: The Body temperature was 40.30 ± 0.25 °C.

Question: What about the “antipyretic percentage (%)” value ([12]; 240 min after administration) of the same molecule?
Answer: The value was −1.85 ± 0.15 %.

Question: Which results are given for COc1ccc([C@H]2OCC3C2CO[C@H]3c2ccc(O[C@@H]3OC(CO)[C@@H](O)[C@H](O)C3O)c(OC)c2)cc1OC (some centres unmarked) [phillyrin]?
Answer: antiviral effective rate (ER %) [1]: 80.40** %; antiviral effective rate (ER %) [2]: 84.96** %; Hemagglutination titer (InX) [3]: 22.06 ± 1.120; Inhibition rate (%) of hemagglutination titer [3]: 31.90%; antiviral effective rate (ER %) [4]: 75.14** %; antiviral effective rate (ER %) [5]: 84.85** %; antiviral effective rate (ER %) [6]: 75.27** %; Swelling percentage (%) [7, 13]: 12.9 ± 8.41%; Swelling percentage (%) [7, 14]: 19.9 ± 9.55%; Swelling percentage (%) [7, 15]: 21.8 ± 11.8 %; Swelling percentage (%) [7, 16]: 28.9 ± 14.0 %; Swelling percentage (%) [7, 17]: 30.8 ± 15.4 %; Swelling percentage (%) [7, 18]: 29.9 ± 11.1 %; Swelling percentage (%) [7, 19]: 33.5 ± 10.0 %; Swelling percentage (%) [7, 20]: 32.2 ± 11.9 %; Lung index [8]: 1.335 ± 0.062; Lung index inhibition rate [8]: 16.10; half toxic concentration (TC50) [9]: 550 µg/mL; maximal non-toxic concentration (TC0) [9]: 0.0066 g/L; Hemagglutination titer (InX) [10]: 23.17; Inhibition rate (%) of hemagglutination titer [10]: 30.01%; antiviral effective rate (ER %) [11]: 85.00** %; Body temperature ([12]; 30 min after administration): 40.83 ± 0.26 °C; antipyretic percentage (%) ([12]; 30 min after administration): −0.37 ± 0.15%; Body temperature ([12]; 60 min after administration): 40.58 ± 0.21 °C; antipyretic percentage (%) ([12]; 60 min after administration): −0.61 ± 0.12%; Body temperature ([12]; 90 min after administration): 40.43 ± 0.22 °C; antipyretic percentage (%) ([12]; 90 min after administration): −0.97 ± 0.27%; Body temperature ([12]; 120 min after administration): 40.37 ± 0.27 °C; antipyretic percentage (%) ([12]; 120 min after administration): −1.13 ± 0.14 %; Body temperature ([12]; 180 min after administration): 40.16 ± 0.23 °C; antipyretic percentage (%) ([12]; 180 min after administration): −1.65 ± 0.12 %; Body temperature ([12]; 240 min after administration): 39.92 ± 0.25 °C; antipyretic percentage (%) ([12]; 240 min after administration): −2.22 ± 0.11 %
